Entries after “also recorded” stand apart in the source; their conditions may differ. Like-named read-outs stand apart in the source and are kept apart here. A value given as a limit tells only on which side of the number the result lay.

Assay [1] has as its system potassium channels. As to the kind of experiment: Thallium flux (FluxOR) fluorescence assay of potassium channel function in Sua1B cells. Type of assay: cell-based, Anopheles gambiae. Here is the method: (§1) Differentiation with 20-Hydroxyecdysone. […] Controls had 0.1% DMSO.
Thallium Flux Measurements of Potassium Channel Pharmacology. The FluxOR™ potassium channel assay (Molecular Probes, Inc., Eugene, Oreg., USA) was performed as outlined in the product information sheet and performed on the SyntaxMax plate reader (BioTek, Winooski, Vt., USA).

Assay [2] concerns AgKv2 K+ channels. As to the kind of experiment: Whole cell patch clamp of AgKv2 K+ channels expressed in HEK293 cells. Type of assay: cell-based, Anopheles gambiae.
The test system of assay [3] is Anopheles gambiae Kv2 (AgKv2) channel (Accession # XM_315955.4) expressed in HEK293 cells. As to conditions: read-out: EC50 (TEA inhibition of K+ current); FIG. 6E; HEK293 cells with AgKv2 gene, CMV promoter, tetracycline-induced (w/ TC); whole cell patch clamp, holding potential −80 mV, steps up to +100 mV.
The subject of assay [4] is Kv2 delayed-rectifier K+ channel (AgKv2), native channel current in Sua1B cells. The note with it: read-out: IC50 (TEA inhibition of K+ current), FIG. 5F, whole cell patch clamp, holding potential −80 mV, steps up to +100 mV, TEA 0.3-30 mM traces, 20-HE added 3 hours before experiments (general method). The text has this: (§2) Cell Culture. […] Cells were passed every 3-5 days.
(§3) Differentiation with 20-Hydroxyecdysone.

For assay [5], the system named is Kv2 delayed-rectifier potassium channels (AgKv2). As to the kind of experiment: Whole cell patch clamp of potassium channel currents in Sua1B cells. Type of assay: cell-based, Anopheles gambiae.
From the text: as §2, §1

Assay [6] concerns nicotinic acetylcholine receptors. As to the kind of experiment: Imidacloprid-induced calcium fluorescence in Sua1B cells. Type of assay: cell-based, Anopheles gambiae.
Assay [7] has the same test system. In words: Imidacloprid-induced calcium fluorescence in Sf21 cells. Type of assay: cell-based, lepidopteran. On the procedure:
(§4) FIGS. 8A-8C. […] Imidacloprid-induced calcium fluorescence is blocked by 100 μM mecamylamine (MML). […] FIG. 8B: Response of a patch clamped Sf21 cell to imidacloprid treatment after 6 hours in 20-HE. […] The current voltage plot was generated by subtracting TEA-insensitive current from total current at each voltage.
FIG. 9. […] Expression of IMI-induced fluorescence is the same, with even lower vehicle background with caffeine, at least in this particular experiment.

Assay [8] shares this test system. In words: Patch clamp of Sf21 cell response to imidacloprid. The format is cell-based, lepidopteran. As to conditions: Sf21 cell after 6 hours in 20-HE. On the procedure: as §4
In assay [9] the test system is outward potassium currents similar to Kv2 currents. As to the kind of experiment: Patch clamp of potassium currents in Sf21 cells. The format is cell-based, lepidopteran. As to conditions: 3 hours treatment. On the procedure:
as §4

Assay [10] concerns muscarinic-type receptor. In words: Calcium fluorescence response to muscarinic agonists in Sua1B cells. The format is cell-based, Anopheles gambiae.
From the text: as §2, §3

Take `NC1=N[C@H](O)[C@H]2[C@H]3O[C@]4(O)O[C@@H]([C@@H](O)[C@@]2(N1)[C@@H]4O)[C@]3(O)CO` [tetrodotoxin]: in assay [1], the “effect on thallium ion uptake” value was “no effect”.
On to `CC[N+](CC)(CC)CC` [TEA, tetraethylammonium], for which, in assay [2], the “inhibition of AgKv2 K+ current” value is on record as “inhibited; also recorded: Inhibition of potassium current”. For the same compound, in assay [3], the EC50 worked out at 1300 µM. In [4], the half-maximal inhibitory concentration (IC50) turned out to be 8000 µM. In addition, the “inhibition of Kv2 (AgKv2) K+ currents” value in [5] is given as “inhibited AgKv2 currents; also recorded: Inhibition of K^+ current”.
Consider `Nc1ccncc1` [4-AP, 4-aminopyridine], for which, in [2] (HEK293 cells expressing the AgKv2 gene), the “inhibition of AgKv2 K+ current” value was “inhibited”. Besides, the “effect on thallium ion uptake” value in [1] (Sua1B cells induced by 20-HE) is “blocking action”. Also, the “inhibition of Kv2 (AgKv2) K+ currents” value in [5] (20-HE-treated Sua1B cells) is on record as “inhibited AgKv2 currents”; in [5] (20-HE-treated Sua1B cells, listed as 4-aminopyridine), “inhibited”.
As to `CNC1(C)C2CCC(C2)C1(C)C` (centres unmarked) [mecamylamine], the “block of imidacloprid-increased calcium fluorescence” value in [6] (100 μM, Sua1B cells, 3 hours of 20-HE treatment) is on record as “blocked”. The “block of imidacloprid-induced calcium fluorescence” value in assay [7] (100 μM, Sf21 cells, 6 hours 20-HE) is given as “blocked”. In addition, the “reduction of imidacloprid-induced calcium fluorescence” value in assay [7] (Sf21 cells without 20-HE) was “variable and not statistically significant reduction”.
Take `O=[N+]([O-])NC1=NCCN1Cc1ccc(Cl)nc1` [imidacloprid]: the “current response of patch clamped cell” value in assay [8] is “inward current”. Besides, the “calcium fluorescence versus controls” value in assay [6] (Sua1B cells in the absence of 20-HE) was “no imidacloprid effect”; in assay [6] (Sua1B cells, 3 hours of 20-HE treatment), “increases calcium fluorescence above controls”. Moreover, the “calcium fluorescence compared to matched controls” value in assay [7] (10 μM, Sf21 cells, 6 hours of exposure to 20-HE) is “greater imidacloprid-induced calcium fluorescence”. For the same compound, the calcium fluorescence entry in [7] (Sf21 cells without 20-HE) is recorded as “reduced effect”.
Take `CC(C)(O)CC[C@@H](O)[C@](C)(O)[C@H]1CC[C@@]2(O)C3=CC(=O)[C@@H]4C[C@@H](O)[C@@H](O)C[C@]4(C)[C@H]3CC[C@]12C` [20-HE, 20-hydroxyecdysone]: in [1] (Sua1B cells, 42 μM 20-HE, time dependence), the “K+ channel expression (thallium fluorescence)” value was “detectable ion channel expression in hours”. Moreover, the “expression of potassium currents” value in assay [9] is on record as “expressing outward potassium currents”. In [7] (Sf21 cells, 6 hours of exposure), the “expression of nicotinic acetylcholine receptors” value is recorded as “enhances expression”. Also, the “Maximal increase of AgKv2 channel expression (current)” value in assay [5] (20-HE treatment of Sua1B cells) is reported as 2000 pA. Further, the “time after treatment at which Kv2 delayed-rectifier potassium channels are expressed” value in assay [5] (Sua1B cells, whole cell patch clamp) is ≤ 3 h.
As for `Cn1c(=O)c2c(ncn2C)n(C)c1=O` [caffeine], the “expression of imidacloprid sensitivity (IMI-induced fluorescence)” value in assay [7] (Sf21 cells, 6 hours exposure, 10 μM imidacloprid) is “approximately the same effect as caffeine and 20-HE”.
Consider `CC(C[N+](C)(C)C)OC(N)=O` (centres unmarked) [bethanechol], for which the “fold less potent response in the absence of insect hormone” value in assay [10] is reported as ~200 fold. Also, the EC50 was determined as 0.25 µM in assay [10] (read-out: EC50 (concentration where the response is half maximal), calcium fluorescence) and 48 µM in [10] (read-out: EC50, calcium fluorescence).

(Values after patent US20160187321A1, “INDUCED EXPRESSION OF PROTEINS IN INSECT CELLS” (UNIVERSITY OF FLORIDA RESEARCH FOUNDATION, INC., priority 2013, published 2016).)
